One data set concerns B cells in human blood. Description: Inhibition of B cell activation in whole blood measured by CD69 expression. As to conditions: CD69-positive, CD20-positive cells after anti-IgM stimulation, human whole blood, 20 hours, read-out: Human Whole Blood. The class given is cell-based. The procedure, abridged:
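Heparinised human whole blood was preincubated with compound (nine-point, three-fold dilutions) for 30 min at 37 °C. It was then stimulated with 50 μg/ml goat F(ab′)2 anti-human IgM for 20 hours. CD20/CD69 staining, red-cell lysis and flow cytometry gave percent CD69-positive cells, from which IC50 values were calculated.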

The melting point is the temperature of the solid-liquid transition.

`Cn1nc(-c2cccc(-n3ncc4cc(C(C)(C)C)cc(F)c4c3=O)c2CO)cc(Nc2cnc(CNC3CCC3)cn2)c1=O` [I-35, 6-tert-Butyl-2-{3-[5-(5-cyclobutylaminomethyl-pyrazin-2-ylamino)-1-methyl-6-oxo-1,6-dihydro-pyridazin-3-yl]-2-hydroxymethyl-phenyl}-8-fluoro-2H-phthalazin-1-one]: the melting point fell in the range of 163 to 167 °C. Further, the IC50 with B cells in human blood is 74 nM.
Consider `CN1CCN(Cc2cnc(Nc3cc(-c4cccc(-n5ncc6cc(C(C)(C)C)cc(F)c6c5=O)c4CO)nn(C)c3=O)cn2)CC1` [I-37, 6-tert-Butyl-8-fluoro-2-(2-hydroxymethyl-3-{1-methyl-5-[5-(4-methyl-piperazin-1-ylmethyl)-pyrazin-2-ylamino]-6-oxo-1,6-dihydro-pyridazin-3-yl}-phenyl)-2H-phthalazin-1-one], for which the melting point was 215 to 218 °C. Also, the IC50 in the data set on B cells in human blood came out at 84 nM.
The molecule `CN(C)CC(C)(C)Oc1cnc(Nc2cc(-c3cccc(-n4ncc5cc(C(C)(C)C)cc(F)c5c4=O)c3CO)nn(C)c2=O)cn1` [I-38, 6-tert-Butyl-2-(3-{5-[5-(2-dimethylamino-1,1-dimethyl-ethoxy)-pyrazin-2-ylamino]-1-methyl-6-oxo-1,6-dihydro-pyridazin-3-yl}-2-hydroxymethyl-phenyl)-8-fluoro-2H-phthalazin-1-one] returned a melting point of 235 to 240 °C. In the data set with B cells in human blood, the IC50 came out at 12 nM.
For `CN(C)CC(C)(C)Oc1ccc(Nc2cc(-c3cccc(-n4ncc5cc(C(C)(C)C)cc(F)c5c4=O)c3CO)nn(C)c2=O)nn1` [I-39, 6-tert-Butyl-2-(3-{5-[6-(2-dimethylamino-1,1-dimethyl-ethoxy)-pyridazin-3-ylamino]-1-methyl-6-oxo-1,6-dihydro-pyridazin-3-yl}-2-hydroxymethyl-phenyl)-8-fluoro-2H-phthalazin-1-one] the same measures were 140 to 145 °C and 21 nM.
For `CN1CCC(c2ccc(Nc3cc(-c4cccc(-n5ncc6cc(C(C)(C)C)cc(F)c6c5=O)c4CO)nn(C)c3=O)nn2)CC1` [I-40, 6-tert-Butyl-8-fluoro-2-(2-hydroxymethyl-3-{1-methyl-5-[6-(1-methyl-piperidin-4-yl)-pyridazin-3-ylamino]-6-oxo-1,6-dihydro-pyridazin-3-yl}-phenyl)-2H-phthalazin-1-one] the same measures were 260 to 265 °C and 44 nM.
`COCCNCc1ccc(Nc2cc(-c3cccc(-n4ncc5cc(C(C)(C)C)cc(F)c5c4=O)c3CO)nn(C)c2=O)nc1` [I-42, 6-tert-Butyl-8-fluoro-2-[2-hydroxymethyl-3-(5-{5-[(2-methoxy-ethylamino)-methyl]-pyridin-2-ylamino}-1-methyl-6-oxo-1,6-dihydro-pyridazin-3-yl)-phenyl]-2H-phthalazin-1-one] registered a melting point of 108 to 110 °C. Also, the IC50 with B cells in human blood worked out at 47 nM.
Consider `CN1C[C@@H]2C[C@H]1CN2Cc1ccc(Nc2cc(-c3cccc(-n4ncc5cc(C(C)(C)C)cc(F)c5c4=O)c3CO)nn(C)c2=O)nc1` [I-43, 6-tert-Butyl-8-fluoro-2-(2-hydroxymethyl-3-{1-methyl-5-[5-((1S,4S)-5-methyl-2,5-diaza-bicyclo[2.2.1]hept-2-ylmethyl)-pyridin-2-ylamino]-6-oxo-1,6-dihydro-pyridazin-3-yl}-phenyl)-2H-phthalazin-1-one], for which the melting point was 183 to 186 °C. Moreover, in the data set with B cells in human blood, the IC50 was 41 nM.
The like results for `Cn1nc(Nc2cc(-c3cccc(-n4ncc5cc(C(C)(C)C)cc(F)c5c4=O)c3CO)nn(C)c2=O)cc1CN1CCC1` [I-58] were, in that order, 214 to 217 °C and 2 nM.
The like results for `CN1CCn2nc(Nc3cc(-c4cccc(-n5ncc6cc(C(C)(C)C)cc(F)c6c5=O)c4CO)nn(C)c3=O)cc2C1` [I-59] were, in that order, 188 to 193 °C and 5 nM.
The like results for `Cn1nc(-c2cccc(-n3ncc4cc(C(C)(C)C)cc(F)c4c3=O)c2CO)cc(Nc2cc3n(n2)CCN(C2COC2)C3)c1=O` [I-60] were, in that order, 180 to 185 °C and 4 nM.

The values are drawn from US8481540B2, “Inhibitors of bruton's tyrosine kinase” (Hoffmann-La Roche Inc., priority 2010, dated 2013).
